The text below walks through data of US20070010671A1, “Novel quinazoline derivatives and methods of treatment related to the use thereof” (priority 2003, published 2007).

This experiment has as its target MCH receptor (Homo sapiens, UniProt Q99705). The experiment can be described thus: High throughput functional screening FLIPR/FDSS6000: inhibition of MCH-evoked intracellular Ca2+ changes. In kind it is cell-based. The settings on record: for class: class by percent of control at 10^-7 M or IC50. From the text:
Subsequently, a functional based assay was used to confirm the lead hits, referred to as FLIPR™ (the Fluorometric Imaging Plate Reader) and FDSS6000™ (Functional Drug Screening System). This assay utilized 3 non-endozenous, constitutively active version of the MCH receptor.
The FLIPR and FDSS assays are able to detect intracellular Ca^2+ concentration in cells, which can be utilized to assess receptor activation and determine whether a candidate compound is an, for example, antagonist, inverse agonist or agonist to a Gq-coupled receptor. The concentration of free Ca^2+ in the cytosol of any cell is extremely low, whereas its concentration in the extracellular fluid and endoplasmic reticulum (ER) is very high. Thus, there is a large gradient tending to drive Ca^2+ into the cytosol across both the plasma membrane and ER. The FLIPR™ and FDSS6000™ systems (Molecular Devices Corporation, HAMAMATSU Photonics K.K.) are designed to perform functional cell-based assays, such as the measurement of intracellular calcium for high-throughput screening, The measurement of fluorescent is associated with calcium release upon activation of the Gq-coupled receptors.
Fluorometric Imaging Plate Reader system was used to allow for rapid, kinetic measurements of intracellular fluorescence in 96 well microplates (or 384 well microplates). Simultaneous measurements of fluorescence in all wells can be made by FLIPR or FDSS6000™ every second with high sensitivity and precision. These systems are ideal for measuring cell-based functional assays such as monitoring the intracellular calcium fluxes that occur within seconds after activation of the Gq coupled receptor.
Briefly, the cells are seeded into 96 well at 5.5×10^4 cells/well with complete culture media (Dulbecco's Modified Eagle Medium with 10% fetal bovine serum, 2 mMi L-glutamine, 1 mM sodium pyruvate and 0.5 mg/ml G418, pH 7.4) for the assay next day. On the day of assay, the media is removed and the cells are incubated with 100 μl of loading buffer (4 μM Fluo4-AM in complete culture media containing 2.5 mM Probenicid, 0.5 mg/ml and 0.2% bovine serum albumin) in 5% CO2 incubator at 37° C. for 1 hr. The loading buffer is removed, and the cells are washed with wash buffer (Hank's Balanced Salt Solution containing 2.5 mM Probenicid, 20 mM HEPES, 0.5 mg/ml and 0.2% bovine serum albumm, pH 7.4)). One hundred fifty μl of wash buffer containing various concentrations of test compound is added to the cells, and the cells are incubated in 5% CO2 incubator at 37° C. for 3 min. Fifty μl of wash buffer containing various concentration of MCH are added to each well, and transient changes in [Ca^2+]i evokled bee MCH are monoitored using the FLIPR, or FDSS in 96 shell plates at Ex. 488 nm and Em. 530 nm for 290 second. When antagonist activity of compound is tested, 50 nM of MCH is used.
Use of FLIPR™ and FDSS6000™ can be accomplished by following manufacturer's instruction (Molecular Device Corporation and HAMAMATSU Photonics K.K.).

The mark [1] stands for this setting: class by percent of control at 10^-7 M or by IC50, read-out: class.
Where [2] appears, read: antagonist activity, 50 nM of MCH, FLIPR or FDSS, read-out: IC50.

Molecules are shown by their SMILES. Where a name gives a salt, the structure may show the parent alone. Read-outs that look alike come from different tables or passages of the source.

Regarding `CC(NC(=O)N[C@H]1CC[C@@H](Nc2nc(N(C)C)c3ccccc3n2)CC1)c1ccc(Br)cc1` (relative stereo) [compound 151], the IC50 under setting [1] was under 50 nM. Same read-out and setting: next, `CN(C)c1nc(N[C@H]2CC[C@@H](NC(=S)NCC3CCCO3)CC2)nc2ccccc12` (relative stereo) [compound 196]: over 200 nM; `CN(C)c1nc(N[C@H]2CC[C@@H](NC(=S)NC34CC5CC(CC(C5)C3)C4)CC2)nc2ccccc12` (relative stereo) [compound 200]: over 200 nM. `CC(NC(=S)N[C@H]1CC[C@@H](Nc2nc(N(C)C)c3ccccc3n2)CC1)c1ccc(F)cc1` (relative stereo) [compound 273, N-(cis-4-{[4-(dimethylamino)quinazolin-2-yl]amino}cyclohexyl)-N′-[1-(4-fluorophenyl)ethyl]thiourea]: the class was 2 (Class 2: The value of percent of control at 10^−7 M was from 40% to 60% or the value of IC50 was from 50 nM to 200 nM.). Still for that read-out and setting: for `CC(NC(=S)N[C@H]1CC[C@@H](Nc2nc(N(C)C)c3ccccc3n2)CC1)c1ccccc1` (relative stereo) [compound 283] the value was 2 (Class 2: The value of percent of control at 10^−7 M was from 40% to 60% or the value of IC50 was from 50 nM to 200 nM.). On the same count and under the same terms, next, `CCOC(=O)[C@H](Cc1ccccc1)NC(=O)N[C@H]1CC[C@@H](Nc2nc(N(C)C)c3ccccc3n2)CC1` (relative stereo) [compound 336, ethyl N-{[(cis-4-{[4-(dimethylamino)quinazolin-2-yl]amino}cyclohexyl)amino]carbonyl}phenylalaninate]: 1 (Class 1: The value of percent of control at 10^−7 M was less than 40% or the value of IC50 was less than 50 nM.); `CN(C)c1nc(N[C@H]2CC[C@@H](NC(=S)NC3CC4CCC3C4)CC2)nc2ccccc12` (relative stereo) [compound 377]: 1 (Class 1: The value of percent of control at 10^−7 M was less than 40% or the value of IC50 was less than 50 nM.).

In the case of `CN(C)c1nc(N[C@H]2CC[C@@H](NC(=S)NC3CC4C=CC3C4)CC2)nc2ccccc12` (relative stereo) [compound 378], the class is 3 (Class 3: The value of percent of control at 10^−7 M was more than 60% or the value of IC50 was more than 200 nM.).

With `CN(C)c1nc(N[C@H]2CC[C@@H](CNC(=O)NC34CC5CC(CC(C5)C3)C4)CC2)nc2ccccc12` (relative stereo) [compound 406], the class is 3 (Class 3: The value of percent of control at 10^−7 M was more than 60% or the value of IC50 was more than 200 nM.).

For `CCOC(=O)[C@H](CC(C)C)NC(=O)NC[C@H]1CC[C@@H](Nc2nc(N(C)C)c3ccccc3n2)CC1` (relative stereo) [compound 435, ethyl N-({[(cis-4-{[4-(dimethylamino)quinazolin-2-yl]amino}cyclohexyl)methyl]amino}carbonyl)leucinate], the class was 1 (Class 1: The value of percent of control at 10^−7 M was less than 40% or the value of IC50 was less than 50 nM.).

As for `COC(=O)[C@H](CCSC)NC(=O)NC[C@H]1CC[C@@H](Nc2nc(N(C)C)c3ccccc3n2)CC1` (relative stereo) [compound 442, methyl N-({[(cis-4-{[4-(dimethylamino)quinazolin-2-yl]amino}cyclohexyl)methyl]amino}carbonyl)methioninate], the class was 2 (Class 2: The value of percent of control at 10^−7 M was from 40% to 60% or the value of IC50 was from 50 nM to 200 nM.). The same measure, in the same setting: for `CC(NC(=O)NC[C@H]1CC[C@@H](Nc2nc(N(C)C)c3ccccc3n2)CC1)c1cccc2ccccc12` (relative stereo) [compound 461] the value was 3 (Class 3: The value of percent of control at 10^−7 M was more than 60% or the value of IC50 was more than 200 nM.). Same read-out and setting: for `COC(=O)[C@H](Cc1ccccc1)NC(=O)NC[C@H]1CC[C@@H](Nc2nc(N(C)C)c3ccccc3n2)CC1` (relative stereo) [compound 462] the value was 3 (Class 3: The value of percent of control at 10^−7 M was more than 60% or the value of IC50 was more than 200 nM.).

As to `CC(NC(=O)NC[C@H]1CC[C@@H](Nc2nc(N(C)C)c3ccccc3n2)CC1)c1ccccc1` (relative stereo) [compound 465, N-[(cis-4-{[4-(dimethylamino)quinazolin-2-yl]amino}cyclohexyl)methyl]-N′-(1-phenylethyl)urea], the class was 2 (Class 2: The value of percent of control at 10^−7 M was from 40% to 60% or the value of IC50 was from 50 nM to 200 nM.).

On to `CC(NC(=O)NC[C@H]1CC[C@@H](Nc2nc(N(C)C)c3ccccc3n2)CC1)c1ccc(Br)cc1` (relative stereo) [compound 575], for which the class is reported as 3 (Class 3: The value of percent of control at 10^−7 M was more than 60% or the value of IC50 was more than 200 nM.). In the case of `CN(C)c1nc(N[C@H]2CC[C@@H](CNC(=S)NCC3CCCO3)CC2)nc2ccccc12` (relative stereo) [compound 620], the class is 2 (Class 2: The value of percent of control at 10^−7 M was from 40% to 60% or the value of IC50 was from 50 nM to 200 nM.).

`CN(C)c1nc(N[C@H]2CC[C@@H](CNC(=S)NC34CC5CC(CC(C5)C3)C4)CC2)nc2ccccc12` (relative stereo) [compound 624]: the class is listed as 3 (Class 3: The value of percent of control at 10^−7 M was more than 60% or the value of IC50 was more than 200 nM.).

As to `CC(NC(=S)NC[C@H]1CC[C@@H](Nc2nc(N(C)C)c3ccccc3n2)CC1)c1ccc(F)cc1` (relative stereo) [compound 697], the class is given as 2 (Class 2: The value of percent of control at 10^−7 M was from 40% to 60% or the value of IC50 was from 50 nM to 200 nM.). Turning to `CC(NC(=S)NC[C@H]1CC[C@@H](Nc2nc(N(C)C)c3ccccc3n2)CC1)c1ccccc1` (relative stereo) [compound 707], the class is reported as 3 (Class 3: The value of percent of control at 10^−7 M was more than 60% or the value of IC50 was more than 200 nM.). On the same count and under the same terms, for `CCOC(=O)[C@H](Cc1ccccc1)NC(=O)NC[C@H]1CC[C@@H](Nc2nc(N(C)C)c3ccccc3n2)CC1` (relative stereo) [compound 756] the value was 3 (Class 3: The value of percent of control at 10^−7 M was more than 60% or the value of IC50 was more than 200 nM.).

As for `CN(C)c1nc(N[C@H]2CC[C@@H](CNC(=S)NC3CC4CCC3C4)CC2)nc2ccccc12` (relative stereo) [compound 798], the IC50 under setting [1] is 50 to 200 nM.

Turning to `CN(C)c1nc(N[C@H]2CC[C@@H](CNC(=S)NC3CC4C=CC3C4)CC2)nc2ccccc12` (relative stereo) [compound 799, N-bicyclo[2.2.1]hept-5-en-2-yl-N′-[(cis-4-{[4-(dimethylamino)quinazolin-2-yl]amino}cyclohexyl)methyl]thiourea], the IC50 under setting [1] fell in the range of 50 to 200 nM. Consider `COc1ccc(NC(=O)N[C@H]2CC[C@@H](Nc3nc(N(C)C)c4ccccc4n3)CC2)cc1OC` [Example 1, 1-(3,4-Dimethoxy)-phenyl)-3-[cis-4-(4-dimethylamino-quinazolin-2-ylamino)-cyclohexyl-urea hydrochloride], for which the IC50 under setting [2] worked out at 13 nM. The same measure, in the same setting: for `CN(C)c1nc(N[C@H]2CC[C@@H](CNC(=O)Nc3cccc(Cl)c3Cl)CC2)nc2ccccc12` [Example 2, 1-(2,3-Dichloro-phenyl)-3-[cis-4-(4-dimethylamino-quinazolin-2-ylamino)-cyclohexylmethyl]-urea hydrochloride] the value was 13 nM. The same measure, in the same setting: for `CN(C)c1nc(N[C@H]2CC[C@@H](CNC(=O)Nc3c(Cl)cccc3Cl)CC2)nc2ccccc12` [Example 3, 1-(2,6-Dichloro-phenyl)-3-[cis-4-(4-dimethylamino-quinazolin-2-)ylamino)-cyclohexylmethyl]-urea hydrochloride] the value was 4.9 nM; for `Cc1cccc(Oc2ncccc2C(=O)N[C@H]2CC[C@@H](Nc3nc(N(C)C)c4ccccc4n3)CC2)c1` [Example 898, N-(cis-4-{[4-(Dimethylamino)quinazolin-2-yl]amino}cyclohexyl)-2-(3-methylphenoxy)-nicotinamide trifluoroacetate], 3.3 nM.
